Experimental data taken from patent US20040258633A1, “Composition containing monoterpenes for topical oral administration” (Gisol Ltd., priority 2000, published 2004).

Assay: Example 5 salt solution mouth wash, periodontal index (PI)
Format: in vivo
Settings: 10% salt solution mouth wash, 30 seconds, twice a day, for a week; point of origin = 1
Protocol: Using solutions having a concentration of 10% the salts presented in table 3 below were applied after tooth brushing, in the form of a mouth wash. The mouth wash was applied for 30 seconds, twice a day, for a week. The following results were measured according to the periodontal index (PI): […]

| SMILES | PI (periodontal index) |
| --- | --- |
| [Cl-].[Na+] [NaCl] | 1.32 |
| [Br-].[Br-].[Mg+2] [MgBr2] | 1.58 |
| [Cl-].[K+] [Kcl] | 1.47 |
